Data: patent US12540150B1, “Fluorogenic probe using a Mislow-Evans rearrangement for real-time imaging of hydrogen peroxide” (University of Pittsburgh—Of the Commonwealth System of …, priority 2020, dated 2026)
Several values for one entry are separate records, joined by “and”; a condition that tells them apart may be missing. Identical values can stand only once.

Experiment: Kinetics of the reaction of 1 with H2O2

Oc1ccc2c(c1)Oc1cc(O/C=C/C[Se]c3ccccc3)ccc1[C@@]21OCc2ccccc21 [Compound 1, (S,E)-6′-((3-(Phenylselanyl)prop-1-en-1-yl)oxy)-3H-spiro[isobenzofuran-1,9′-xanthen]-3′-ol]
rate of reaction with H2O2 relative to boronate-based probes: seven times faster
second order rate constant k (5% MeCN in pH 7.5 HEPES buffer 50 mM, [1]=1.7 μM): 9.82 ± 1.11 M⁻¹ s⁻¹
Slope k′ ([H2O2] 0.625 mM): 0.00251 s⁻¹
Slope k′ ([H2O2] 1.25 mM): 0.01359 s⁻¹
Slope k′ ([H2O2] 2.5 mM): 0.02432 s⁻¹
F-F0 (515 nm) ([H2O2] = 0.625 mM, 30 s): 145,691 and 101,161 and 83,026
[1] ([H2O2] = 0.625 mM, 30 s): 1.3453 µM and 1.4596 µM and 1.5061 µM
F-F0 (515 nm) ([H2O2] = 0.625 mM, 90 s): 220,196 and 277,036 and 236,883
[1] ([H2O2] = 0.625 mM, 90 s): 1.1541 µM and 1.0082 µM and 1.1113 µM
F-F0 (515 nm) ([H2O2] = 0.625 mM, 150 s): 301,900 and 391,059 and 348,470
[1] ([H2O2] = 0.625 mM, 150 s): 0.9444 µM and 0.7157 µM and 0.8249 µM
F-F0 (515 nm) ([H2O2] = 0.625 mM, 210 s): 355,049 and 458,596 and 422,910
[1] ([H2O2] = 0.625 mM, 210 s): 0.8081 µM and 0.5424 µM and 0.6339 µM
F-F0 (515 nm) ([H2O2] = 0.625 mM, 270 s): 390,358 and 499,861 and 473,964
[1] ([H2O2] = 0.625 mM, 270 s): 0.7175 µM and 0.4365 µM and 0.5029 µM
F-F0 (515 nm) ([H2O2] = 0.625 mM, 330 s): 421,561 and 522,358 and 509,584
[1] ([H2O2] = 0.625 mM, 330 s): 0.6374 µM and 0.3787 µM and 0.4115 µM
F-F0 (515 nm) ([H2O2] = 0.625 mM, 390 s): 450,025 and 534,705 and 536,252
[1] ([H2O2] = 0.625 mM, 390 s): 0.5643 µM and 0.3470 µM and 0.3431 µM
F-F0 (515 nm) ([H2O2] = 0.625 mM, 450 s): 477,638 and 541,922 and 555,207
[1] ([H2O2] = 0.625 mM, 450 s): 0.4935 µM and 0.3285 µM and 0.2944 µM
F-F0 (515 nm) ([H2O2] = 0.625 mM, 510 s): 501,767 and 546,290 and 569,868
[1] ([H2O2] = 0.625 mM, 510 s): 0.4316 µM and 0.3173 µM and 0.2568 µM
F-F0 (515 nm) ([H2O2] = 0.625 mM, 570 s): 524,121 and 550,122 and 581,518
[1] ([H2O2] = 0.625 mM, 570 s): 0.3742 µM and 0.3075 µM and 0.2269 µM
F-F0 (515 nm) ([H2O2] = 0.625 mM, 630 s): 543,908 and 551,490 and 591,076
[1] ([H2O2] = 0.625 mM, 630 s): 0.3234 µM and 0.3040 µM and 0.2024 µM
F-F0 (515 nm) ([H2O2] = 0.625 mM, 690 s): 559,985 and 551,741 and 599,176
[1] ([H2O2] = 0.625 mM, 690 s): 0.2822 µM and 0.3033 µM and 0.1816 µM
F-F0 (515 nm) ([H2O2] = 0.625 mM, 750 s): 570,897 and 553,475 and 603,780
[1] ([H2O2] = 0.625 mM, 750 s): 0.2542 µM and 0.2989 µM and 0.1698 µM
F-F0 (515 nm) ([H2O2] = 0.625 mM, 810 s): 580,693 and 553,568 and 609,902
[1] ([H2O2] = 0.625 mM, 810 s): 0.2290 µM and 0.2986 µM and 0.1541 µM
F-F0 (515 nm) ([H2O2] = 0.625 mM, 870 s): 587,536 and 552,326 and 614,108
F-F0 (515 nm) ([H2O2] = 1.25 mM, 30 s): 255,659 and 258,915 and 225,047
[1] ([H2O2] = 1.25 mM, 30 s): 1.0631 µM and 1.0547 µM and 1.1417 µM
F-F0 (515 nm) ([H2O2] = 1.25 mM, 90 s): 364,712 and 517,271 and 484,926
[1] ([H2O2] = 1.25 mM, 90 s): 0.7833 µM and 0.3918 µM and 0.4748 µM
F-F0 (515 nm) ([H2O2] = 1.25 mM, 150 s): 463,364 and 607,290 and 590,662
F-F0 (515 nm) ([H2O2] = 1.25 mM, 210 s): 514,663 and 641,798 and 639,332
F-F0 (515 nm) ([H2O2] = 1.25 mM, 270 s): 549,297 and 656,229 and 660,178
F-F0 (515 nm) ([H2O2] = 1.25 mM, 330 s): 572,635 and 661,539 and 664,254
F-F0 (515 nm) ([H2O2] = 1.25 mM, 390 s): 589,797 and 665,178 and 666,753
F-F0 (515 nm) ([H2O2] = 1.25 mM, 450 s): 601,493 and 663,842 and 669,367
F-F0 (515 nm) ([H2O2] = 1.25 mM, 510 s): 606,377 and 663,608 and 673,539
F-F0 (515 nm) ([H2O2] = 1.25 mM, 570 s): 612,207 and 662,594 and 675,671
F-F0 (515 nm) ([H2O2] = 1.25 mM, 630 s): 614,405 and 663,947 and 677,477
F-F0 (515 nm) ([H2O2] = 1.25 mM, 690 s): 616,203 and 663,123 and 679,640
F-F0 (515 nm) ([H2O2] = 1.25 mM, 750 s): 616,371 and 663,595 and 679,888
F-F0 (515 nm) ([H2O2] = 1.25 mM, 810 s): 614,783 and 663,765 and 683,016
F-F0 (515 nm) ([H2O2] = 1.25 mM, 870 s): 614,819 and 662,173 and 685,799
